{
  "source": "a compilation of properties of binary mixtures (doi:10.1021/jp3100377)",
  "assay": "xn = mol fraction of the nth substance listed",
  "conditions": "100 kPa",
  "data": [
    {"compound": "CC(=O)[O-].CC[n+]1ccn(C)c1", "note": "+ O", "values": [
      {"measurement": "viscosity", "setting": "293.15 K, x2 = 0", "value": 203, "unit": "mPa·s"},
      {"measurement": "viscosity", "setting": "293.15 K, x2 = 0.4", "value": 88.6, "unit": "mPa·s"},
      {"measurement": "viscosity", "setting": "293.15 K, x2 = 0.6014", "value": 51.8, "unit": "mPa·s"},
      {"measurement": "viscosity", "setting": "293.15 K, x2 = 0.8023", "value": 20.45, "unit": "mPa·s"},
      {"measurement": "viscosity", "setting": "303.15 K, x2 = 0", "value": 104.8, "unit": "mPa·s"},
      {"measurement": "viscosity", "setting": "303.15 K, x2 = 0.2088", "value": 77.9, "unit": "mPa·s"},
      {"measurement": "viscosity", "setting": "303.15 K, x2 = 0.6014", "value": 32.6, "unit": "mPa·s"},
      {"measurement": "viscosity", "setting": "303.15 K, x2 = 0.8023", "value": 13.51, "unit": "mPa·s"},
      {"measurement": "viscosity", "setting": "313.15 K, x2 = 0", "value": 61.1, "unit": "mPa·s"},
      {"measurement": "viscosity", "setting": "313.15 K, x2 = 0.6014", "value": 21.88, "unit": "mPa·s"},
      {"measurement": "viscosity", "setting": "313.15 K, x2 = 0.8023", "value": 9.41, "unit": "mPa·s"},
      {"measurement": "viscosity", "setting": "323.15 K, x2 = 0", "value": 38.9, "unit": "mPa·s"},
      {"measurement": "viscosity", "setting": "323.15 K, x2 = 0.4", "value": 23.04, "unit": "mPa·s"},
      {"measurement": "viscosity", "setting": "323.15 K, x2 = 0.6014", "value": 15.4, "unit": "mPa·s"},
      {"measurement": "viscosity", "setting": "323.15 K, x2 = 0.8023", "value": 6.6, "unit": "mPa·s"},
      {"measurement": "viscosity", "setting": "333.15 K, x2 = 0", "value": 26.56, "unit": "mPa·s"},
      {"measurement": "viscosity", "setting": "333.15 K, x2 = 0.2088", "value": 20.8, "unit": "mPa·s"},
      {"measurement": "viscosity", "setting": "333.15 K, x2 = 0.4", "value": 16.47, "unit": "mPa·s"},
      {"measurement": "viscosity", "setting": "333.15 K, x2 = 0.6014", "value": 11.09, "unit": "mPa·s"},
      {"measurement": "viscosity", "setting": "333.15 K, x2 = 0.8023", "value": 4.95, "unit": "mPa·s"},
      {"measurement": "viscosity", "setting": "343.15 K, x2 = 0", "value": 19.01, "unit": "mPa·s"},
      {"measurement": "viscosity", "setting": "343.15 K, x2 = 0.6014", "value": 8.39, "unit": "mPa·s"},
      {"measurement": "viscosity", "setting": "353.15 K, x2 = 0", "value": 14.24, "unit": "mPa·s"},
      {"measurement": "viscosity", "setting": "353.15 K, x2 = 0.4", "value": 9.27, "unit": "mPa·s"},
      {"measurement": "viscosity", "setting": "353.15 K, x2 = 0.8023", "value": 3.021, "unit": "mPa·s"}
    ]}
  ]
}
